Data taken from US8940781B2, “Pesticidal composition and its use” (Sumitomo Chemical Company, Limited, priority 2010, dated 2015).

Test system: Rhizoctonia solani
Test: Soybean seed treatment test in soil contaminated by Rhizoctonia solani (disease control efficacy)
Type: in vivo, Rhizoctonia solani on soybean (variety: Natto shoryu)
Conditions: seed treatment of soybean; carboxamide compound alone 0.2 g/100 kg of seeds; cultivated 20 days in contaminated soil; versus non-treated plot
Experimental: A cyclohexanone solution (100 microL) containing prescribed amount (weight) of a test compound was applied on seeds of soybean (variety: Natto shoryu) (10 g) by using a rotary apparatus for seed treatment (Seed dresser, manufactured by Hans-Ulrich Hege GmbH).
One day after the application, plastic pot was filled with soil contaminated by Rhizoctonia solani, and the seeds treated with the test compounds were seeded in the soil and cultivated in a glass-greenhouse for 20 days (hereinafter referred to as “treated plot”).
Thereafter, the presence of disease caused by Rhizoctonia solani in the young plants which germinated from each seed was observed and disease severity was calculated according to the following calculation formula (1).
On the other hand, seeds of soybean which were not treated as above were cultivated in the same way as above (hereinafter referred to as “non-treated plot”) and the disease severity in the “non-treated plot” was calculated in the same way as the above “treated plot”. On the basis of the above disease severity in “treated plot” and “non-treated plot”, efficacy in “treated plot” was evaluated according to the following calculation formula (2). […]

SMILES | efficacy (%)
CC1CC(C)(C)c2cccc(NC(=O)c3cn(C)nc3C(F)F)c21 (centres unmarked) [carboxamide compound (1)] | 47.4%
Cc1nn(C)c(C)c1C(=O)Nc1cccc2c1C(C)CC2(C)C (centres unmarked) [carboxamide compound (5)] | 15.8%
